We go through 23 compounds from ChEMBL document CHEMBL1132635, “N6,5'-Disubstituted adenosine derivatives as partial agonists for the human adenosine A3 receptor” (J Med Chem, 1999).

In assay [1] the target is T1, Adenosine receptor A3 (Homo sapiens) (UniProt P0DMS8).
T1 sequence (whole entry): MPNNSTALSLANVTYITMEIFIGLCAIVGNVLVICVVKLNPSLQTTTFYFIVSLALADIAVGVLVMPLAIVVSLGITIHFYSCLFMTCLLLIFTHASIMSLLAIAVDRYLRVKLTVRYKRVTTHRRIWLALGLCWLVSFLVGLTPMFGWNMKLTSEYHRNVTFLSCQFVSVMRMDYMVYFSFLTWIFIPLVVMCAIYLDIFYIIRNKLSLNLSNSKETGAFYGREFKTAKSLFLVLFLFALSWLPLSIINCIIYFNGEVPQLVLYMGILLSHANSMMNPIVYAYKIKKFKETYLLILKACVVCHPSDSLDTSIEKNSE
In words: Inhibition of forskolin-stimulated cAMP production mediated by human adenosine A3 receptor expressed in CHO cells at 10 uM. It counts as functional, cell-based. For orientation: Changes in cAMP serve as a functional read-out for many G protein-coupled receptors.

Assay [2] has as its target T1, Adenosine receptor A3 (Homo sapiens). Briefly: Inhibition of forskolin-induced c-AMP production by adenosine A3 receptor with 10 uM NECA. Type of assay: functional.
The target is the same in assay [3]. In words: Percentage of [35S]GTP-gamma-S, binding to the human adenosine A3 receptor stimulated at 10E-4 M. It counts as functional. In general terms: GTPγS is a poorly hydrolysed GTP analogue; its binding reports G protein activation.
The target of assay [4] is T2, Adenosine receptor A3 (Homo sapiens, UniProt P0DMS8).
T2 sequence (P0DMS8 whole entry): T1 sequence (whole entry)
In words: Binding affinity at human Adenosine A3 receptor expressed in HEK 293 cells by [125I]AB-MECA displacement. Type of assay: cell-based, HEK293.

In assay [5] the target is Adenosine receptors; A1 & A3 (Rattus norvegicus) (UniProt P25099+P28647). In words: Ratio of displacement of A1 receptor to A3 receptor. Type of assay: protein assay.
Assay [6] deals with T3, Adenosine receptor A2a (Rattus norvegicus, UniProt P30543). In words: Displacement of [3H]-CGS- 21680 from Adenosine A2A receptor of rat striatal membranes. Type of assay: cell membranes, Membrane. (In general: In a radioligand displacement assay an active substance lowers the binding of a labelled ligand.)
T3 sequence (P30543 whole entry): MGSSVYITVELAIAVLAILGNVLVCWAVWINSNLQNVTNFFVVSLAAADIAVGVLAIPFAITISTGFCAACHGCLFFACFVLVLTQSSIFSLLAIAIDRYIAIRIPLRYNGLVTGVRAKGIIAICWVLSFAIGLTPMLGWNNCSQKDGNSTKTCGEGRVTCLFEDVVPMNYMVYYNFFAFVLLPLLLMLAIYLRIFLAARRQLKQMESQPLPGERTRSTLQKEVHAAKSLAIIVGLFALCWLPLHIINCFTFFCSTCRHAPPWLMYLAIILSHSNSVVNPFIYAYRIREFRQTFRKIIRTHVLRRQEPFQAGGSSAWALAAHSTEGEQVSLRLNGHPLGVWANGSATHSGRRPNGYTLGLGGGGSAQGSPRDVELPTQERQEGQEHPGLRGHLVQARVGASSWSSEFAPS
For assay [7], the target named is T4, Adenosine receptor A1 (Rattus norvegicus, UniProt P25099).
T4 sequence (P25099 whole entry): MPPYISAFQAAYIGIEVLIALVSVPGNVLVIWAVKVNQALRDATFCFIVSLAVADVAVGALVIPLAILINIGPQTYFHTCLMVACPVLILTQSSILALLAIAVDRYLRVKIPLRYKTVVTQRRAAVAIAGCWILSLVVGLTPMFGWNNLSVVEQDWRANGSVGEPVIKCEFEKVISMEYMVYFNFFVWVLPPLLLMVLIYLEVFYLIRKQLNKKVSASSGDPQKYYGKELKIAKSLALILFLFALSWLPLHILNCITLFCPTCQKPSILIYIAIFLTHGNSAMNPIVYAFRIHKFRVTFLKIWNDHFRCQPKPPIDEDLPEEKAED
In words: Displacement of [3H]DPCPX from rat cortical membranes Adenosine A1 receptor. Type of assay: cell membranes, Membrane.

For assay [8], the target named is T2, Adenosine receptor A3. In words: Effective concentration for stimulation of [35S]GTP-gamma-S, binding to human adenosine A3 receptor. It counts as functional.
For assay [9], the target named is T5, Adenosine receptor A1 (Rattus norvegicus) (UniProt P25099).
T5 sequence (whole entry): T4 sequence (P25099 whole entry)
Briefly: Percentage displacement of [3H]DPCPX from rat cortical membranes Adenosine A1 receptor at 10 uM. Type of assay: cell membranes. The conditions noted are these: Membrane.

In assay [10] the target is Adenosine receptor A2a (Rattus norvegicus) (UniProt P30543). In words: Percentage displacement of [3H]-CGS- 21680 from Adenosine A2A receptor of rat striatal membranes at 10 uM. Conditions: Membrane. It counts as cell membranes.
Chain of Adenosine receptor A2a (Rattus norvegicus) (P30543 whole entry): as the sequence (P30543 whole entry) above
For assay [11], the target named is T2, Adenosine receptor A3. In words: Displacement of [125I]AB-MECA from human Adenosine A3 receptor expressed in HEK 293 cells. It counts as cell-based, HEK293.
Assay [12] has as its target T3, Adenosine receptor A2a. In words: Displacement of [3H]-CGS- […] from Adenosine A2A receptor of rat striatal membranes. Type of assay: cell membranes, Membrane.

In general, inhibition refers to the change of the read-out against control, counted positive when it falls. For the compound `OC[C@H]1O[C@@H](n2cnc3c(NCc4cccc(I)c4)ncnc32)[C@H](O)[C@@H]1O`, the inhibition was 86% in [1] and 91% in [2]. The compound further gave a Radioligand bound in assay [3] of 56%.
One may read the Ki as the dissociation constant of the complex between target and ligand, obtained from inhibition or displacement. A higher Ki goes with a looser hold on the target. In the case of `CSC[C@H]1O[C@@H](n2cnc3c(NC4CCCC4)ncnc32)[C@H](O)[C@@H]1O`, affinity in [4] was put at a Ki of 74 nM. In addition, the Ratio in assay [5] turned out to be 0.8.
The term EC50 denotes the concentration giving half of the maximal effect. A low value points to an effect from little substance. For the compound `CSC[C@H]1O[C@@H](n2cnc3c(NCc4cccc(I)c4)ncnc32)[C@H](O)[C@@H]1O`, the Ki in [6] was found to be 1820 nM; in assay [7] it was 610 nM; in assay [4], 8.78 nM. Moreover, the results for the inhibition in assay [1] and in [2] were 64% and 87%, respectively. Also, the Ratio in assay [5] turned out to be 69.5. In assay [8], the EC50 came to 27 nM. In assay [3], the Radioligand bound came out at 41%.
As to `OC[C@H]1O[C@@H](n2cnc3c(NCc4ccccc4)ncnc32)[C@H](O)[C@@H]1O` [N6-BENZYLADENOSINE], the Ki is 733 nM in assay [6] and 550 nM in assay [4]. The values for the inhibition in assay [1] and in assay [2] were 82% and 94%, respectively. Besides, a half-maximal response in [8] (EC50) required 384 nM. The Radioligand bound in assay [3] came out at 81%.
Turning to `OC[C@H]1O[C@@H](n2cnc3c(NC4CCCC4)ncnc32)[C@H](O)[C@@H]1O` [N6-CYCLOPENTYLADENOSINE], in assay [4], the affinity corresponds to a Ki of 120 nM.
Same read-out and setting: under `CNC(=O)[C@H]1OC(n2cnc3c(NCc4ccccc4)ncnc32)[C@@H](O)[C@H]1O` (some centres undefined) stands 41 nM.
In assay [4], `CCCSC[C@H]1O[C@@H](n2cnc3c(NCc4cccc(I)c4)ncnc32)[C@H](O)[C@@H]1O` yielded an inhibition constant Ki of 44.3 nM. The Displacement in assay [9] and in assay [10] was 42% each time. In addition, the Ratio in [5] was greater than 226. Moreover, in assay [3], the Radioligand bound was determined as 10%.
For the compound `CCSC[C@H]1O[C@@H](n2cnc3c(NC4CCCC4)ncnc32)[C@H](O)[C@@H]1O`, the inhibitory constant (Ki) in [4] worked out at 90 nM. For the same compound, the Ratio in [5] worked out at 0.5.
Consider `CCSC[C@H]1O[C@@H](n2cnc3c(NCc4cccc(I)c4)ncnc32)[C@H](O)[C@@H]1O`, for which the Ki in assay [6] worked out at 1080 nM; in assay [7] it was 720 nM; in assay [4], 17.5 nM. The Ratio in [5] came to 41.1. The Radioligand bound in [3] worked out at 21%.
The compound `COc1cccc(CNc2nc(Cl)nc3c2ncn3C2O[C@H](c3ccon3)[C@H](O)[C@@H]2O)c1` (some centres undefined) displayed an inhibition constant (Ki) in assay [4] of 31 nM.
In the case of `CCCSC[C@H]1O[C@@H](n2cnc3c(NCc4ccccc4)ncnc32)[C@H](O)[C@@H]1O`, the results for the Ki in assay [6], in assay [7] and in [4] were 7990 nM, 5870 nM and 647 nM, respectively. Further, the Ratio in assay [5] was 8.7. This compound gave a Radioligand bound in assay [3] of 7%.
On to `CNC(=O)C[C@H]1OC(n2cnc3c(NCc4cccc(I)c4)nc(Cl)nc32)[C@@H](O)[C@H]1O` (some centres undefined), for which the affinity in assay [11] corresponds to a Ki of 0.33 nM.
`CC(C)SC[C@H]1O[C@@H](n2cnc3c(NCc4ccccc4)ncnc32)[C@H](O)[C@@H]1O` registered an inhibition constant (Ki) in assay [4] of 211 nM. Besides, the results for the Displacement in assay [9] and in assay [10] were 14% and 6%, respectively. Also, the Ratio in [5] was greater than 47.4. The compound also came in with a Radioligand bound in assay [3] of 22%.
Consider `O[C@H]1[C@@H](c2ccon2)OC(n2cnc3c(NCc4cccc(I)c4)nc(Cl)nc32)[C@H]1O` (some centres undefined), for which, in [4], the Ki stood at 7.8 nM.
Regarding `CC(C)SC[C@H]1O[C@@H](n2cnc3c(NC4CCCC4)ncnc32)[C@H](O)[C@@H]1O`, the Ki amounted to 41 nM in [7], 137 nM in assay [4] and 10200 nM in assay [12]. Further, the Ratio in assay [5] was determined as 0.3.
Regarding `O[C@@H]1[C@H](O)[C@@H](CCl)O[C@H]1n1cnc2c(NC3CCCC3)ncnc21`, in assay [4], the affinity corresponds to a Ki of 1290 nM. Also, the Ratio in assay [5] is 0.007.
`CSC[C@H]1O[C@@H](n2cnc3c(NCc4ccccc4)ncnc32)[C@H](O)[C@@H]1O`: the inhibition in [1] was 60%; in assay [2], 93%. In addition, the Ki in assay [4] was determined as 128 nM. Moreover, the results for the Displacement in assay [9] and in assay [10] were 31% and 25%, respectively. Besides, the Ratio in assay [5] is greater than 78.1. The same compound had an EC50 in assay [8] of 473 nM. In [3], this compound came in with a Radioligand bound of 52%.
`CC(C)SC[C@H]1O[C@@H](n2cnc3c(NCc4cccc(I)c4)ncnc32)[C@H](O)[C@@H]1O` registered a Ki in assay [4] of 46.3 nM. For the same compound, the Displacement in [9] amounted to 35%; in assay [10], 45%. Further, the Ratio in assay [5] is greater than 216. For the same compound, in assay [3], the Radioligand bound was found to be 16%.
The compound `CCNC(=O)[C@H]1O[C@@H](n2cnc3c(N)ncnc32)[C@H](O)[C@@H]1O` returned an inhibition in assay [1] of 100%. Further, in assay [3], the Radioligand bound worked out at 100%.
Regarding `CCSC[C@H]1O[C@@H](n2cnc3c(NCc4ccccc4)ncnc32)[C@H](O)[C@@H]1O`, the Ki in [4] was found to be 159 nM. The values for the Displacement in assay [9] and in [10] were 29% and 38%, respectively. For the same compound, the Ratio in assay [5] is greater than 62.9. For the same compound, in assay [3], the Radioligand bound came to 19%.
Take `O[C@@H]1[C@H](O)[C@@H](CCl)O[C@H]1n1cnc2c(NCc3ccccc3)ncnc21`: the values for the inhibition constant Ki in [6] and in assay [4] were 641 nM and 1860 nM, respectively. In assay [9], this compound returned a Displacement of 47%. In [5], the Ratio was greater than 5.4. This compound showed a Radioligand bound in [3] of 13%.
`O[C@@H]1[C@H](O)[C@@H](CCl)O[C@H]1n1cnc2c(NCc3cccc(I)c3)ncnc21`: the Ki in [6] was 457 nM; in assay [7], 270 nM; in assay [4] it was 188 nM. For the same compound, in assay [5], the Ratio was 1.4. Also, the Radioligand bound in [3] amounted to 8%.
Compound `CCCSC[C@H]1O[C@@H](n2cnc3c(NC4CCCC4)ncnc32)[C@H](O)[C@@H]1O` registered an inhibition constant (Ki) in assay [4] of 193 nM. Further, in assay [5], the Ratio is 0.39.
